Source: patent US5840684A, “Glycopeptide antibiotic derivatives” (Eli Lilly and Company, priority 1995, dated 1998)
Values after ≈ are worked out from the molar mass of the structure shown.

What was measured:
[1] = test system: Staphylococcus aureus SA1199B; assay type: cell-based
Protocol: (§1) The MIC's were determined using a standard broth micro-dilution assay.

[2] = test system: Staphylococcus haemolyticus 415; test: broth micro-dilution MIC; assay type: cell-based
Protocol: (§2) The formula I compounds have in vitro and in vivo activity against Gram-positive pathogenic bacteria. The MIC's were determined using a standard broth micro-dilution assay.

[3] = test system: Enterococcus gallinarum 245; test: broth micro-dilution MIC; assay type: cell-based; conditions: Enterococcus gallinarum 245
Protocol: as §2

[4] = test system: Entercoccus faecium 180; test: broth micro-dilution MIC; assay type: cell-based; conditions: Entercoccus faecium 180
Protocol: as §2

[5] = test system: Streptococcus pneumoniae P1; test: broth micro-dilution MIC; assay type: cell-based
Protocol: as §2

[6] = test system: Staphylococcus haemolyticus 105; test: broth micro-dilution MIC; assay type: cell-based
Protocol: as §2

[7] = test system: Escherichia coli EC14; test: broth micro-dilution MIC; assay type: cell-based
Protocol: as §2

[8] = test system: Staphylococcus aureus X778; test: broth micro-dilution MIC; assay type: cell-based
Protocol: as §1

[9] = test system: Streptococcus pyogenes C203; test: broth micro-dilution MIC; assay type: cell-based
Protocol: as §1

[10] = test system: Staphylococcus aureus SA1199; test: broth micro-dilution MIC; assay type: cell-based
Protocol: as §1

[11] = test system: Entercoccus faecium 180-1; test: broth micro-dilution MIC; assay type: cell-based
Protocol: as §1

[12] = test system: Staphylococcus aureus X400; test: broth micro-dilution MIC; assay type: cell-based
Protocol: as §1

[13] = test system: vancomycin-resistant enterococci; test: broth micro-dilution, mean geometric MIC; assay type: cell-based, Enterococcus faecium and Enterococcus faecalis; conditions: enterococci, 24-hour incubation
[14] = test system: Staphylococcus aureus S13E; assay type: cell-based
Protocol: as §1

[15] = test system: vancomycin-susceptible enterococci; test: broth micro-dilution, mean geometric MIC; assay type: cell-based, Enterococcus faecium and Enterococcus faecalis; conditions: enterococci, 24-hour incubation
[16] = test system: Entercoccus faecium 2041; test: broth micro-dilution MIC; assay type: cell-based; conditions: Entercoccus faecium 2041
Protocol: as §2

[17] = test system: Staphylococcus epidermidis 270; test: broth micro-dilution MIC; assay type: cell-based
Protocol: as §2

[18] = test system: Haemophilus influenzae RD; test: broth micro-dilution MIC; assay type: cell-based; conditions: Haemophilus influenzae RD
Protocol: as §2

[19] = test system: Staphylococcus aureus 447; test: broth micro-dilution MIC; assay type: cell-based
Protocol: as §1

[20] = test system: Staphylococcus aureus 446; test: broth micro-dilution MIC; assay type: cell-based
Protocol: as §1

[21] = test system: Staphylococcus aureus SA1199A; test: broth micro-dilution MIC; assay type: cell-based
Protocol: as §1

[22] = test system: Staphylococcus aureus 491; test: broth micro-dilution MIC; assay type: cell-based
Protocol: as §1

[23] = test system: Entercoccus faecium 276; test: broth micro-dilution MIC; assay type: cell-based
Protocol: as §1

[24] = test system: Staphylococcus aureus 489; test: broth micro-dilution MIC; assay type: cell-based
Protocol: as §1

| Structure (SMILES) | MIC [1] [µg/mL] | MIC [2] [µg/mL] | MIC [3] [µg/mL] | MIC [4] [µg/mL] | MIC [5] [µg/mL] | MIC [6] [µg/mL] | MIC [8] [µg/mL] | MIC [9] [µg/mL] | MIC [10] [µg/mL] | MIC [11] [µg/mL] | MIC [12] [µg/mL] | mean geometric MIC, Vancomycin Resistant Strains [13] [µg/mL] | MIC [14] [µg/mL] | mean geometric MIC, Vancomycin Sensitive Strains [15] [µg/mL] | MIC [16] [µg/mL] | MIC [17] [µg/mL] | MIC [18] [µg/mL] | MIC [19] [µg/mL] | MIC [20] [µg/mL] | MIC [21] [µg/mL] | further results |
| --- | --- | --- | --- | --- | --- | --- | --- | --- | --- | --- | --- | --- | --- | --- | --- | --- | --- | --- | --- | --- | --- |
| CNC(CC(C)C)C(=O)NC1C(=O)NC(CC(N)=O)C(=O)NC2C(=O)NC3C(=O)NC(C(=O)NC(C(=O)O)c4cc(O)cc(O)c4-c4cc3ccc4O)C(OC3CC(C)(N)C(O)C(C)O3)c3ccc(c(Cl)c3)Oc3cc2cc(c3OC2OC(CO)C(O)C(O)C2OC2CC(C)(NCc3c(C)c(C)c(C)c(C)c3C)C(O)C(C)O2)Oc2ccc(cc2Cl)C1O (stereo not shown) [Compound 73] | ≤ 0.06 | 2 (≈ 1.14 µM) | 2 (≈ 1.14 µM) | 0.5 (≈ 0.285 µM) | ≤ 0.06 | 0.5 (≈ 0.285 µM) | 1 (≈ 0.571 µM) | ≤ 0.06 | 0.5 (≈ 0.285 µM) | ≤ 0.06 | 0.5 (≈ 0.285 µM) | 11 |  |  |  |  |  |  |  |  | MIC [7]: > 64 µg/mL |
| CNC(CC(C)C)C(=O)NC1C(=O)NC(CC(N)=O)C(=O)NC2C(=O)NC3C(=O)NC(C(=O)NC(C(=O)O)c4cc(O)cc(O)c4-c4cc3ccc4O)C(OC3CC(C)(N)C(O)C(C)O3)c3ccc(c(Cl)c3)Oc3cc2cc(c3OC2OC(CO)C(O)C(O)C2OC2CC(C)(NCCCCCCCCCCc3ccccc3)C(O)C(C)O2)Oc2ccc(cc2Cl)C1O (stereo not shown) [Compound 197] | 2 (≈ 1.11 µM) | 4 (≈ 2.21 µM) | 4 (≈ 2.21 µM) | 0.5 (≈ 0.276 µM) | ≤ 0.06 | 1 (≈ 0.553 µM) | 2 (≈ 1.11 µM) | ≤ 0.06 | 2 (≈ 1.11 µM) | 0.25 (≈ 0.138 µM) | 2 (≈ 1.11 µM) | 1.2 | 2 (≈ 1.11 µM) | 0.16 | 0.25 (≈ 0.138 µM) | 0.5 (≈ 0.276 µM) | 32 (≈ 17.7 µM) | 2 (≈ 1.11 µM) | 1 (≈ 0.553 µM) | 1 (≈ 0.553 µM) | MIC [22]: 1 µg/mL (≈ 0.553 µM); MIC [23]: 1 µg/mL (≈ 0.553 µM); MIC [24]: 2 µg/mL (≈ 1.11 µM) |
| CNC(CC(C)C)C(=O)NC1C(=O)NC(CC(N)=O)C(=O)NC2C(=O)NC3C(=O)NC(C(=O)NC(C(=O)O)c4cc(O)cc(O)c4-c4cc3ccc4O)C(OC3CC(C)(N)C(O)C(C)O3)c3ccc(c(Cl)c3)Oc3cc2cc(c3OC2OC(CO)C(O)C(O)C2OC2CC(C)(NCCCCCCCCBr)C(O)C(C)O2)Oc2ccc(cc2Cl)C1O (stereo not shown) [Compound 198] | 0.5 (≈ 0.28 µM) | 1 (≈ 0.561 µM) | 1 (≈ 0.561 µM) | ≤ 0.06 | ≤ 0.06 | 0.5 (≈ 0.28 µM) | 0.125 (≈ 0.0701 µM) | ≤ 0.06 | 0.5 (≈ 0.28 µM) | ≤ 0.06 | 0.5 (≈ 0.28 µM) | 3.4 | 0.125 (≈ 0.0701 µM) | 0.062 | ≤ 0.06 | 0.25 (≈ 0.14 µM) | 32 (≈ 17.9 µM) | 0.125 (≈ 0.0701 µM) | 1 (≈ 0.561 µM) | ≤ 0.06 | MIC [22]: ≤ 0.06 µg/mL; MIC [23]: 0.25 µg/mL (≈ 0.14 µM); MIC [24]: 0.125 µg/mL (≈ 0.0701 µM) |
| CNC(CC(C)C)C(=O)NC1C(=O)NC(CC(N)=O)C(=O)NC2C(=O)NC3C(=O)NC(C(=O)NC(C(=O)O)c4cc(O)cc(O)c4-c4cc3ccc4O)C(OC3CC(C)(N)C(O)C(C)O3)c3ccc(c(Cl)c3)Oc3cc2cc(c3OC2OC(CO)C(O)C(O)C2OC2CC(C)(NCCCCCCCCOc3ccc(Oc4ccccc4)cc3)C(O)C(C)O2)Oc2ccc(cc2Cl)C1O (stereo not shown) [Compound 202] | 8 (≈ 4.24 µM) | 8 (≈ 4.24 µM) | 8 (≈ 4.24 µM) | 0.5 (≈ 0.265 µM) | ≤ 0.06 | 4 (≈ 2.12 µM) | 4 (≈ 2.12 µM) | ≤ 0.06 | 8 (≈ 4.24 µM) | 0.5 (≈ 0.265 µM) | 4 (≈ 2.12 µM) | 1.4 | 4 (≈ 2.12 µM) | 0.76 | 1 (≈ 0.529 µM) | 4 (≈ 2.12 µM) | 32 (≈ 16.9 µM) | 8 (≈ 4.24 µM) | 4 (≈ 2.12 µM) | 2 (≈ 1.06 µM) | MIC [22]: 4 µg/mL (≈ 2.12 µM); MIC [23]: 4 µg/mL (≈ 2.12 µM); MIC [24]: 4 µg/mL (≈ 2.12 µM) |
| CNC(CC(C)C)C(=O)NC1C(=O)NC(CC(N)=O)C(=O)NC2C(=O)NC3C(=O)NC(C(=O)NC(C(=O)O)c4cc(O)cc(O)c4-c4cc3ccc4O)C(OC3CC(C)(N)C(O)C(C)O3)c3ccc(c(Cl)c3)Oc3cc2cc(c3OC2OC(CO)C(O)C(O)C2OC2CC(C)(NCc3cccc(Oc4cccc(C(F)(F)F)c4)c3)C(O)C(C)O2)Oc2ccc(cc2Cl)C1O (stereo not shown) [Compound 203] | 1 (≈ 0.543 µM) | 2 (≈ 1.09 µM) | 2 (≈ 1.09 µM) | 0.125 (≈ 0.0678 µM) | ≤ 0.06 | 1 (≈ 0.543 µM) | 1 (≈ 0.543 µM) | ≤ 0.06 | 2 (≈ 1.09 µM) | ≤ 0.06 | 1 (≈ 0.543 µM) | 1.0 | 2 (≈ 1.09 µM) | 0.036 | 0.25 (≈ 0.136 µM) | 0.5 (≈ 0.271 µM) | 16 (≈ 8.68 µM) | 1 (≈ 0.543 µM) | 0.5 (≈ 0.271 µM) | 0.5 (≈ 0.271 µM) | MIC [22]: 1 µg/mL (≈ 0.543 µM); MIC [23]: 0.5 µg/mL (≈ 0.271 µM); MIC [24]: 0.5 µg/mL (≈ 0.271 µM) |
| CNC(CC(C)C)C(=O)NC1C(=O)NC(CC(N)=O)C(=O)NC2C(=O)NC3C(=O)NC(C(=O)NC(C(=O)O)c4cc(O)cc(O)c4-c4cc3ccc4O)C(OC3CC(C)(N)C(O)C(C)O3)c3ccc(c(Cl)c3)Oc3cc2cc(c3OC2OC(CO)C(O)C(O)C2OC2CC(C)(NCc3ccc(OCCCCCCc4ccccc4)cc3)C(O)C(C)O2)Oc2ccc(cc2Cl)C1O (stereo not shown) [Compound 219] | 8 (≈ 4.3 µM) | 2 (≈ 1.08 µM) | 2 (≈ 1.08 µM) | 1 (≈ 0.538 µM) | ≤ 0.06 | 2 (≈ 1.08 µM) | 8 (≈ 4.3 µM) | ≤ 0.06 | 4 (≈ 2.15 µM) | 1 (≈ 0.538 µM) | 8 (≈ 4.3 µM) | 0.71 | 8 (≈ 4.3 µM) | 0.044 | 2 (≈ 1.08 µM) | 4 (≈ 2.15 µM) | 32 (≈ 17.2 µM) | 8 (≈ 4.3 µM) | 8 (≈ 4.3 µM) | 1 (≈ 0.538 µM) | MIC [22]: 4 µg/mL (≈ 2.15 µM); MIC [23]: 2 µg/mL (≈ 1.08 µM); MIC [24]: 8 µg/mL (≈ 4.3 µM) |
| CNC(CC(C)C)C(=O)NC1C(=O)NC(CC(N)=O)C(=O)NC2C(=O)NC3C(=O)NC(C(=O)NC(C(=O)O)c4cc(O)cc(O)c4-c4cc3ccc4O)C(OC3CC(C)(N)C(O)C(C)O3)c3ccc(c(Cl)c3)Oc3cc2cc(c3OC2OC(CO)C(O)C(O)C2OC2CC(C)(NCCCCCCCCCC#Cc3ccccc3)C(O)C(C)O2)Oc2ccc(cc2Cl)C1O (stereo not shown) [Compound 236] | 4 (≈ 2.2 µM) | 4 (≈ 2.2 µM) | 4 (≈ 2.2 µM) | 1 (≈ 0.55 µM) | ≤ 0.06 | 4 (≈ 2.2 µM) | 2 (≈ 1.1 µM) | ≤ 0.06 | 4 (≈ 2.2 µM) | 1 (≈ 0.55 µM) | 2 (≈ 1.1 µM) | 1.4 | 4 (≈ 2.2 µM) | 0.5 | 1 (≈ 0.55 µM) | 2 (≈ 1.1 µM) | 32 (≈ 17.6 µM) | 4 (≈ 2.2 µM) | 1 (≈ 0.55 µM) | 2 (≈ 1.1 µM) | MIC [22]: 4 µg/mL (≈ 2.2 µM); MIC [23]: 2 µg/mL (≈ 1.1 µM); MIC [24]: 4 µg/mL (≈ 2.2 µM) |
